*1 amine or outer side, *2 acyl side, *3 side chain or, on linkers, in order; H or OH if unused. Where a SMILES comes first, the peptide text is derived from it. Bridges are numbered along the chain shown (N, C = ends). [ ]: non-standard residue; d: D form. The star is where a group is joined. X1 = CC[C@H](C)[C@@H](N[*:1])[C@@H](O)CC(=O)O[C@H](C(=O)[C@H](C)C(=O)[*:2])C(C)C; NMeY = CN[C@@H](Cc1ccc(O)cc1)C(=O)O; dNMeL = CN[C@H](CC(C)C)C(=O)O; Pyruvoyl = CC(=O)C(=O)*
Assays:
senescent cells = assay: Viability of senescent cells (CellTiter-Glo), Example 17, Table 13; conditions: Homo sapiens, read-out: Survival (%)
Description: Cells induced to undergo senescence by doxorubicin treatment were treated with test compound at designated concentrations and measured using the CellTiter-Glo Luminescent Cell Viability Assay (Promega).

senescent A549 cells = assay: Viability of senescent A549 cells (CellTiter-Glo), Example 18, Table 15; conditions: Homo sapiens, A549, read-out: Survival (%)
Description: Senescence-induced cancer cells treated with doxorubicin were treated with the test compound at designated concentrations, and cell viability was measured using the CellTiter-Glo Luminescent Cell Viability Assay (Promega).

Question: Which results are given for O=C1Nc2ccccc2/C1=C1/Nc2ccc(C(=O)NCC3CCN(C(=O)CCl)CC3)cc2C1=O [LX-5328]?
Answer: viability at 1.1 µM (senescent cells): 54.3%; viability at 10 µM (senescent cells): 2%; viability at 1.1 µM (senescent A549 cells): 62.7%; viability at 10 µM (senescent A549 cells): 0.4%

Question: Which results are given for CC(C)(C)OC(=O)NC1CCN(c2ccc(-c3cnc4[nH]cc(C(=O)C(=O)NCCc5ccccn5)c4c3)cn2)CC1 [LX-5341]?
Answer: viability at 1.1 µM (senescent cells): 99.1%; viability at 10 µM (senescent cells): 48.5%; viability at 30 µM (senescent cells): 3.5%; viability at 1.1 µM (senescent A549 cells): 94.6%; viability at 10 µM (senescent A549 cells): 55.4%; viability at 30 µM (senescent A549 cells): 13.7%

Question: With C#Cc1nc(C(=O)N2[C@@H](CCCC)Cc3cc(C=C)ccc3[C@@H]2c2ccc(NC34CC5CC(CC(C5)C3)C4)cc2)cs1 [LX-5362] as the compound, how does the viability at 1.1 µM (senescent cells) read?
Answer: 42.5%

Question: And the viability at 1.1 µM (senescent A549 cells)?
Answer: 61.8%

Question: For C[C@H]1Oc2cc(cnc2N)-c2c(nn(C)c2C#N)CN(C)C(=O)c2ccc(F)cc21 [LX-5449, Lorlatinib], which viability at 1.1 µM (senescent cells) is on record?
Answer: 89.1%

Question: What about the viability at 10 µM (senescent cells) of the same compound?
Answer: 44.1%

Question: What about the viability at 30 µM (senescent cells) of the same compound?
Answer: 8.7%

Question: And the viability at 1.1 µM (senescent A549 cells)?
Answer: 91.3%

Question: What about the viability at 10 µM (senescent A549 cells) of the same compound?
Answer: 44.3%

Question: And the viability at 30 µM (senescent A549 cells)?
Answer: 2.4%

Question: What does the source list for NC(=O)c1ccc(-c2cc3c(NC4CCS(=O)(=O)CC4)cccc3n2CC(F)(F)F)cc1 [LX-5904]?
Answer: viability at 1.1 µM (senescent cells): 103%; viability at 10 µM (senescent cells): 25.9%; viability at 30 µM (senescent cells): 2.2%; viability at 1.1 µM (senescent A549 cells): 95.4%; viability at 10 µM (senescent A549 cells): 45.2%; viability at 30 µM (senescent A549 cells): 10.9%

Question: What does the source list for C=C(C#N)CNc1c(OC)ccc2ccc(-c3ccc(S(C)(=O)=O)cn3)cc12 [LX-5906]?
Answer: viability at 1.1 µM (senescent cells): 97.2%; viability at 10 µM (senescent cells): 30.7%; viability at 30 µM (senescent cells): 0.4%; viability at 1.1 µM (senescent A549 cells): 98.7%; viability at 10 µM (senescent A549 cells): 41.5%; viability at 30 µM (senescent A549 cells): 5.9%

Question: How did the viability at 1.1 µM (senescent cells) turn out when C=C(CN1Cc2c(ccc3ccc(-c4cc(NC(C)=O)cc(OC)c4)cc23)C1=O)C(N)=O [LX-5907] was run?
Answer: 95.5%

Question: And the viability at 10 µM (senescent cells)?
Answer: 19.5%

Question: What about the viability at 30 µM (senescent cells) of the same compound?
Answer: 1.7%

Question: And the viability at 1.1 µM (senescent A549 cells)?
Answer: 91.8%

Question: What about the viability at 10 µM (senescent A549 cells) of the same compound?
Answer: 39.4%

Question: And the viability at 30 µM (senescent A549 cells)?
Answer: 14.4%

Question: Which viability at 1.1 µM (senescent cells) does the source give for NS(=O)(=O)OC[C@@H]1C[C@@H](n2ccc3c(N[C@H]4CCc5ccccc54)ncnc32)C[C@@H]1O [LX-6202, Pevonedistat] here?
Answer: 1.5%

Question: What about the viability at 1.1 µM (senescent A549 cells) of the same compound?
Answer: 53.3%

Question: With COc1cc(Nc2ncc3c(n2)-c2ccc(Cl)cc2C(c2c(F)cccc2OC)=NC3)ccc1C(=O)O [LX-6203, Alisertib] as the compound, how does the viability at 1.1 µM (senescent cells) read?
Answer: 75.1%

Question: What about the viability at 10 µM (senescent cells) of the same compound?
Answer: 13.1%

Question: And the viability at 1.1 µM (senescent A549 cells)?
Answer: 96.4%

Question: And the viability at 10 µM (senescent A549 cells)?
Answer: 30.7%

Question: And the viability at 30 µM (senescent A549 cells)?
Answer: 2.1%

Question: For CCN(CCCOc1ccc2c(Nc3cc(CC(=O)Nc4cccc(F)c4)n[nH]3)ncnc2c1)CCOP(=O)(O)O [LX-6205, Barasertib], which viability at 1.1 µM (senescent cells) is on record?
Answer: 3.8%

Question: What about the viability at 1.1 µM (senescent A549 cells) of the same compound?
Answer: 57.4%

Question: With CC[C@@H]1C(=O)N(C)c2cnc(Nc3ccc(C(=O)N[C@H]4CC[C@H](N5CCN(CC6CC6)CC5)CC4)cc3OC)nc2N1C(C)C [LX-6207, Volasertib] as the compound, how does the viability at 1.1 µM (senescent cells) read?
Answer: 68.7%

Question: What about the viability at 10 µM (senescent cells) of the same compound?
Answer: 8.6%

Question: What about the viability at 1.1 µM (senescent A549 cells) of the same compound?
Answer: 88.2%

Question: What about the viability at 10 µM (senescent A549 cells) of the same compound?
Answer: 41%

Question: And the viability at 30 µM (senescent A549 cells)?
Answer: 9.4%

Question: Which results are given for CC[C@H](C)[C@H]1NC(=O)[C@@H](NC(=O)[C@@H](CC(C)C)N(C)C(=O)[C@@H]2CCCN2C(=O)C(C)=O)[C@@H](C)OC(=O)[C@H](Cc2ccc(OC)cc2)N(C)C(=O)[C@@H]2CCCN2C(=O)[C@H](CC(C)C)NC(=O)[C@@H](C)C(=O)[C@H](C(C)C)OC(=O)C[C@@H]1O [LX-6212, Plitidepsin] (Pyruvoyl-P[dNMeL]T[X1]LP[NMeY](Me); ester 3-C)?
Answer: viability at 1.1 µM (senescent cells): 52.3%; viability at 1.1 µM (senescent A549 cells): 75.7%; viability at 10 µM (senescent A549 cells): 0.9%

Question: Which viability at 1.1 µM (senescent cells) does the source give for Cc1cccc2c1NC(=O)[C@@H](NC(=O)[C@H](CCC(F)(F)F)[C@H](CCC(F)(F)F)C(N)=O)N=C2c1cccc(F)c1 [LX-6514] here?
Answer: 97.2%

Question: What about the viability at 10 µM (senescent cells) of the same compound?
Answer: 63.3%

Question: And the viability at 30 µM (senescent cells)?
Answer: 2.7%

Question: And the viability at 1.1 µM (senescent A549 cells)?
Answer: 107%

Question: And the viability at 10 µM (senescent A549 cells)?
Answer: 51.2%

Question: And the viability at 30 µM (senescent A549 cells)?
Answer: 0.2%

Question: For CCNCC[C@H](O)CNCCCCNC[C@@H](O)CCNCC [LX-6516, Ivospemin], which viability at 1.1 µM (senescent cells) is on record?
Answer: 93.3%

Question: And the viability at 10 µM (senescent cells)?
Answer: 71.1%

Question: What about the viability at 30 µM (senescent cells) of the same compound?
Answer: 31.8%

Question: And the viability at 1.1 µM (senescent A549 cells)?
Answer: 91.7%

Question: And the viability at 10 µM (senescent A549 cells)?
Answer: 79.6%

Question: And the viability at 30 µM (senescent A549 cells)?
Answer: 27.6%

Question: Nc1nc2nc[nH]c2c(=S)[nH]1 [LX-6530, Thioguanine] was tested. Which viability at 1.1 µM (senescent cells) did it give?
Answer: 106%

Question: What about the viability at 10 µM (senescent cells) of the same compound?
Answer: 112%

Question: What about the viability at 30 µM (senescent cells) of the same compound?
Answer: 46.1%

Question: What about the viability at 1.1 µM (senescent A549 cells) of the same compound?
Answer: 97.9%

Question: And the viability at 10 µM (senescent A549 cells)?
Answer: 83.9%

Question: And the viability at 30 µM (senescent A549 cells)?
Answer: 61.1%

Question: What about the viability at 90 µM (senescent A549 cells) of the same compound?
Answer: 10.3%

Question: How did the viability at 1.1 µM (senescent cells) turn out when C[C@@]12C[C@@]3(O)O[C@@H](O1)[C@]1(COC(=O)c4ccccc4)[C@H]3C[C@@]12O[C@@H]1O[C@H](CO)[C@@H](O)[C@H](O)[C@H]1O [LX-6804, Paeoniflorin] was run?
Answer: 87.5%

Question: What about the viability at 10 µM (senescent cells) of the same compound?
Answer: 28.5%

Question: And the viability at 1.1 µM (senescent A549 cells)?
Answer: 78.8%

Question: And the viability at 10 µM (senescent A549 cells)?
Answer: 40.8%

Question: What about the viability at 30 µM (senescent A549 cells) of the same compound?
Answer: 8.4%

Question: Which results are given for Nc1cc(F)ccc1NC(=O)c1ccc(CNC(=O)/C=C/c2cccnc2)cc1 [LX-6809, Chidamide]?
Answer: viability at 1.1 µM (senescent cells): 87.5%; viability at 10 µM (senescent cells): 53.3%; viability at 30 µM (senescent cells): 17.8%; viability at 1.1 µM (senescent A549 cells): 100%; viability at 10 µM (senescent A549 cells): 63.7%; viability at 30 µM (senescent A549 cells): 23.9%

Question: Which results are given for COc1ccc(F)cc1C(=O)NCc1ccc(-c2nn([C@@H](C)C(F)(F)F)c(N)c2C(N)=O)cc1 [LX-6981, Pirtobrutinib]?
Answer: viability at 1.1 µM (senescent cells): 0.2%; viability at 1.1 µM (senescent A549 cells): 43.1%
